Experiments:
[1] = test system: IL-1β; assay: LPS-stimulated whole bovine blood assay, MSD cytokine detection; assay type: cell-based; conditions: overstimulation of IL-1β, LPS-stimulated bovine whole blood
[2] = test system: TNF-α; assay: as above; assay type: cell-based; conditions: Bos taurus, LPS-stimulated bovine whole blood; read-out: TNF-α (IC50 μM)
[3] = test system: P. multocida 46572; assay: In vivo mouse lung infection challenge model (murine efficacy); parameters: species or system CD-1 female mice; conditions: 20 mg/kg subcutaneous, P. multocida challenge; harmonized against the comparative vehicle survival rate
Description: The challenge organism was P. multocida 46572. Target challenge concentration was 5×10^2 CFU/mouse. Isolated colonies from overnight growth (37° C. with 5% CO2) on trypticase soy agar (TSA II) blood plates were transferred to room temperature Brain Heart Infusion Broth (BHIB). The broth culture was incubated 3.5-4 hours to approximately mid-log phase of growth, as measured by forward light scatter at 600 nm (OD600, 0.200). The culture was centrifuged to collect the bacterial pellet. The pellet was re-suspended in BHIB and adjusted to provide an approximate concentration of 2.7 log^10 colony forming units (CFU) in 0.04 mL at the highest concentration. The challenge inoculum concentration was confirmed by serial dilutions of the inoculum for CFU enumeration. On Day −5, CD-1 female mice were received. Mice were given standard rodent diet and water ad libitum. On Day 0, bacterial inoculum (0.04 mL) was administered to each mouse (n=36) intranasally. Compounds of the invention were dosed at 20 mg/kg (0.1 mL) in a buffered (˜pH 5.4) propylene glycol, monothioglycerol and water solution by subcutaneous injection. Animals were observed from Days 1-10. The study was terminated on Day 10. In addition, some treatment groups were sampled at 6, 24, and 48 hours post bacterial challenge for RNA sequence analysis of lung tissue.
The murine efficacy model (P. multocida challenge) was optimized, and the treatment group size was powered to be able to observe statistically significant improvement of survival to expected ranges for immunomodulatory compounds. The experimental design was a randomized complete block design. Mice were individually identified and treatment groups comingled within a cage, with every treatment group equally represented across cages. Mortality was the primary variable. Mortality data was analyzed using a generalized mixed model with fixed effect of treatment and random effect of block. Survival time was also analyzed using the SAS PHREG (survival analysis) procedure to examine whether there were significant differences between treatment groups and the control group. Numerous compounds of the invention and M9 (positive control) were tested in this model at a dose of 20 mg/kg. Typical percent survival for no treatment control is in the range of 0-20% based on study to study variation in challenge inoculum and rate of infection. […] Mouse survival for M9 was about 90-100%, further supporting its antibacterial properties against the bacterial strain (Table 3). Survival values presented are harmonized against the comparative vehicle survival rate.

Row | Compound | IL-1β OS of LPS [1] [µM] | IC50 [2] [µM] | Mouse Murine Percent Survival [3] [%]
1 | CC[C@H]1OC(=O)[C@H](C)[C@@H](O[C@H]2C[C@@](C)(OC)[C@](C)(O)[C@H](C)O2)[C@H](C)[C@@H](O[C@@H]2O[C@H](C)C[C@H](N(C)C(=O)N(C)c3ccc(C(F)(F)F)cc3)[C@H]2O)[C@](C)(O)C[C@@H](C)CN[C@H](C)[C@@H](O)[C@]1(C)O [Example B-13a, 1-((2S,3R,4S,6R)-2-(((2R,3S,4R,5R,8R,10R,11R,12S,13S,14R)-2-ethyl-3,4,10-trihydroxy-13-(((2R,4R,5R,6S)-5-hydroxy-4-methoxy-4,5,6-trimethyltetrahydro-2H-pyran-2-yl)oxy)-3,5,8,10,12,14-hexamethyl-15-oxo-1-oxa-6-azacyclopentadecan-11-yl)oxy)-3-hydroxy-6-methyltetrahydro-2H-pyran-4-yl)-1,3-dimethyl-3-(4-(trifluoromethyl)phenyl)urea] | 16 | 20 | 44
2 | CC[C@H]1OC(=O)[C@H](C)[C@@H](O[C@H]2C[C@@](C)(OC)[C@@H](O)[C@H](C)O2)[C@H](C)[C@@H](O[C@@H]2O[C@H](C)C[C@H](N(C)C(=O)Nc3ccccc3)[C@H]2O)[C@](C)(O)C[C@@H](C)CN(C)[C@H](C)[C@@H](O)[C@]1(C)O [Example B-4, 1-((2S,3R,4S,6R)-2-(((2R,3S,4R,5R,8R,10R,11R,12S,13S,14R)-2-ethyl-3,4,10-trihydroxy-13-(((2R,4R,5S,6S)-5-hydroxy-4-methoxy-4,6-dimethyltetrahydro-2H-pyran-2-yl)oxy)-3,5,6,8,10,12,14-heptamethyl-15-oxo-1-oxa-6-azacyclopentadecan-11-yl)oxy)-3-hydroxy-6-methyltetrahydro-2H-pyran-4-yl)-1-methyl-3-phenylurea] | 80 | 45 | 7
3 | CC[C@H]1OC(=O)[C@H](C)[C@@H](O[C@H]2C[C@@](C)(OC)[C@](O)(CNCCN(C)C)[C@H](C)O2)[C@H](C)[C@@H](O[C@@H]2O[C@H](C)C[C@H](N(C)C(=O)Nc3ccccc3)[C@H]2O)[C@](C)(O)C[C@@H](C)CN[C@H](C)[C@@H](O)[C@]1(C)O [Example H-3, 1-((2S,3R,4S,6R)-2-(((2R,3S,4R,5R,8R,10R,11R,12S,13S,14R)-13-(((2R,4R,5S,6S)-5-(((2-(dimethylamino)ethyl)amino)methyl)-5-hydroxy-4-methoxy-4,6-dimethyltetrahydro-2H-pyran-2-yl)oxy)-2-ethyl-3,4,10-trihydroxy-3,5,8,10,12,14-hexamethyl-15-oxo-1-oxa-6-azacyclopentadecan-11-yl)oxy)-3-hydroxy-6-methyltetrahydro-2H-pyran-4-yl)-1-methyl-3-phenylurea] | >500 | 400 | 8
4 | CCCNC[C@]1(O)[C@H](C)O[C@@H](O[C@H]2[C@H](C)[C@@H](O[C@@H]3O[C@H](C)C[C@H](N(C)C(=O)Nc4ccncc4)[C@H]3O)[C@](C)(O)C[C@@H](C)CN[C@H](C)[C@@H](O)[C@](C)(O)[C@@H](CC)OC(=O)[C@@H]2C)C[C@@]1(C)OC [Example H-73, 1-((2S,3R,4S,6R)-2-(((2R,3S,4R,5R,8R,10R,11R,12S,13S,14R)-2-ethyl-3,4,10-trihydroxy-13-(((2R,4R,5S,6S)-5-hydroxy-4-methoxy-4,6-dimethyl-5-((propylamino)methyl)tetrahydro-2H-pyran-2-yl)oxy)-3,5,8,10,12,14-hexamethyl-15-oxo-1-oxa-6-azacyclopentadecan-11-yl)oxy)-3-hydroxy-6-methyltetrahydro-2H-pyran-4-yl)-1-methyl-3-(pyridin-4-yl)urea] | >500 | > 500 | 4

Source: patent US12295936B2, “Immunomodulating urea azalides” (Zoetis Services LLC, priority 2020, dated 2025)
